Test results taken from US11957687B2 (REGENERON PHARMACEUTICALS, INC., priority 2019, dated 2024).

Columns and labels:
[1] = Microsome stability assay, human liver microsomes; assay type: in vitro ADME; conditions: 1 μM compound, 0.5 mg/mL microsomal protein; for microsomal CLint at 1 h, 1 µM / half-life at 1 h, 1 µM: human, human liver microsomes, pooled, NADPH, 37° C.; for microsomal CLint at 1 h, 1 µM: read-out: Microsome Stability Human liver microsomes Cl; for half-life at 1 h, 1 µM: read-out: Microsome Stability Human liver microsomes T½
Description: (§1) Compounds of the disclosure were screened in microsome stability assays. For the screen, test compounds were incubated at 37° C. with either human liver microsomes (Corning; #452117) or mouse liver microsomes (XenoTech; #M1000), pooled from multiple donors, at 1 μM in the presence of a NADPH regenerating system at 0.5 mg/mL microsomal protein. Positive controls included in the assay were testosterone (3A4 substrate), propafenone (2D6) and diclofenac (2C9). Samples were removed at different time points (0, 5, 10, 20, 30 and 60 minutes) and immediately mixed with cold acetonitrile containing internal standard (IS, 200 ng/mL tolbutamide and 200 ng/mL labetalol). Test compounds incubated with microsomes for 60 minutes without the NADPH regenerating system was also included. A single point for each test condition (n=1) was obtained, and samples were analyzed by LC/MS/MS. Disappearance of the test compound was assessed based on peak area ratios of analyte/IS (no standard curve).

HSD17B13 = HSD17B13 (Homo sapiens (Human), UniProt Q7Z5P4); test: HSD17B13 enzymatic inhibition assay (150 nM or 50 nM HSD17B13); assay type: biochemical; conditions: 50 nM HSD17B13; read-out: Inhibition of 50 nM of HSD17B13 IC50
Sequence of HSD17B13 (Q7Z5P4 other isoform, or with tags, fused parts or gaps): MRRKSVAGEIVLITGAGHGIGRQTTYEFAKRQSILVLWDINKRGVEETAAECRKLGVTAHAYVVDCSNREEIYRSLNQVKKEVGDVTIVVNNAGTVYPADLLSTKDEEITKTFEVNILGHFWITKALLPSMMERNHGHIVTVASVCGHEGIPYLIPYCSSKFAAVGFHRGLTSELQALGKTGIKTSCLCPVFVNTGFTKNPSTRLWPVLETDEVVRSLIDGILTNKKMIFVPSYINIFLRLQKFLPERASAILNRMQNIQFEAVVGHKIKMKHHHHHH

[2] = Microsome stability assay, mouse liver microsomes; assay type: in vitro ADME; conditions: 1 μM compound, 0.5 mg/mL microsomal protein
Description: as §1

[3] = mouse, mouse liver microsomes, pooled, NADPH, 37° C., read-out: Microsome Stability Mouse liver microsomes Cl
[4] = mouse, mouse liver microsomes, pooled, NADPH, 37° C., read-out: Microsome Stability Mouse liver microsomes T½

SMILES | Microsome Stability Human liver microsomes % Remaining @60 min [1] | microsomal CLint at 1 h, 1 µM [1] | half-life at 1 h, 1 µM [1] | IC50 (HSD17B13) | Microsome Stability Mouse liver microsomes % Remaining @60 min [2] | microsomal CLint at 1 h, 1 µM [2, 3] | half-life at 1 h, 1 µM [2, 4] | microsomal CLint at 1 μM [2, 3] | half-life at 1 μM [2, 4]
O=C(NC(c1ccccc1)c1ccccc1)c1ccc(C(F)(F)F)[nH]c1=O [Compound 1, N-benzhydryl-2-oxo-6-(trifluoromethyl)-1,2-dihydropyridine-3-carboxamide] | 66.90% | 13.4 µL/min/mg | 103 min | 1750 nM | 29.00% | 42.4 µL/min/mg | 32.7 min | – | –
COc1ccc2c(c1)CCC2NC(=O)c1ccc(C(F)(F)F)[nH]c1=O (stereo not shown) [Compound 134, N-(5-methoxy-2,3-dihydro-1H-inden-1-yl)-2-oxo-6-(trifluoromethyl)-1,2-dihydropyridine-3-carboxamide] | 0.27% | 410 µL/min/mg | 3.38 min | 1410 nM | – | – | – | – | –
Cc1ccc(CNC(=O)c2ccc(C(F)(F)F)[nH]c2=O)cc1 [Compound 215, N-(4-methylbenzyl)-2-oxo-6-(trifluoromethyl)-1,2-dihydropyridine-3-carboxamide] | 1.00% | 414 µL/min/mg | 3.35 min | 2200 nM | – | – | – | – | –
COc1ccc2c(c1)CCCC2NC(=O)c1ccc(C(F)(F)F)[nH]c1=O (stereo not shown) [Compound 234, N-(6-methoxy-1,2,3,4-tetrahydronaphthalen-1-yl)-2-oxo-6-(trifluoromethyl)-1,2-dihydropyridine-3-carboxamide] | 1% | 369 µL/min/mg | 3.76 min | 410 nM | 1% | 303 µL/min/mg | 4.56 min | – | –
Cc1ccc2c(c1)CCCC2NC(=O)c1ccc(C(F)(F)F)[nH]c1=O (stereo not shown) [Compound 235, N-(6-methyl-1,2,3,4-tetrahydronaphthalen-1-yl)-2-oxo-6-(trifluoromethyl)-1,2-dihydropyridine-3-carboxamide] | 1% | 547 µL/min/mg | 2.53 min | 200 nM | 50% | 23.6 µL/min/mg | 58.7 min | – | –
COc1ccc2c(c1)Oc1cc(OC)ccc1C2NC(=O)c1ccc(C(F)F)[nH]c1=O [Compound 273, 6-(difluoromethyl)-N-(3,6-dimethoxy-9H-xanthen-9-yl)-2-oxo-1,2-dihydropyridine-3-carboxamide] | 66.40% | 13.2 µL/min/mg | 105 min | 340 nM | 39% | 31 µL/min/mg | 44.7 min | – | –
CCCC1CCc2cc(C)ccc2C1NC(=O)c1ccc(C(F)(F)F)[nH]c1=O (stereo not shown) [Compound 285, N-(6-methyl-2-propyl-1,2,3,4-tetrahydronaphthalen-1-yl)-2-oxo-6-(trifluoromethyl)-1,2-dihydropyridine-3-carboxamide] | 1.49% | 137 µL/min/mg | 10.1 min | 30 nM | 11.20% | 70.7 µL/min/mg | 19.6 min | – | –
CCCC1Cc2ccc(C)cc2C1NC(=O)c1ccc(C(F)(F)F)[nH]c1=O (stereo not shown) [Compound 291, N-(6-methyl-2-propyl-2,3-dihydro-1H-inden-1-yl)-2-oxo-6-(trifluoromethyl)-1,2-dihydropyridine-3-carboxamide] | 17.90% | 54.5 µL/min/mg | 25.5 min | – | 52.20% | 21.3 µL/min/mg | 65 min | – | –
CCC1Cc2cc(OC)ccc2C1NC(=O)c1ccc(C(F)(F)F)[nH]c1=O (stereo not shown) [Compound 295, N-(2-ethyl-5-methoxy-2,3-dihydro-1H-inden-1-yl)-2-oxo-6-(trifluoromethyl)-1,2-dihydropyridine-3-carboxamide] | 1% | 221 µL/min/mg | 6.26 min | 100 nM | 69% | 12.7 µL/min/mg | 110 min | – | –

Results, then the compound that gave them:

Microsome Stability Human liver microsomes % Remaining @60 min [1] | microsomal CLint at 1 h, 1 µM [1] | half-life at 1 h, 1 µM [1] | IC50 (HSD17B13) | Microsome Stability Mouse liver microsomes % Remaining @60 min [2] | microsomal CLint at 1 h, 1 µM [2, 3] | half-life at 1 h, 1 µM [2, 4] | microsomal CLint at 1 μM [2, 3] | half-life at 1 μM [2, 4] | SMILES
70.70% | 9.82 µL/min/mg | 141 min | 340 nM | 76.40% | – | – | < 9.6 µL/min/mg | > 145 min | CCC1CCc2cc(O)ccc2C1NC(=O)c1ccc(C(F)(F)F)[nH]c1=O (stereo not shown) [Compound 284, N-(2-ethyl-6-hydroxy-1,2,3,4-tetrahydronaphthalen-1-yl)-2-oxo-6-(trifluoromethyl)-1,2-dihydropyridine-3-carboxamide]
27.10% | 42.9 µL/min/mg | 32.3 min | 190 nM | 38.20% | 29.6 µL/min/mg | 46.9 min | – | – | CCCC1CCc2cc(Cl)ccc2C1NC(=O)c1ccc(C(F)(F)F)[nH]c1=O (stereo not drawn) [Compound 286, N-(6-chloro-2-propyl-1,2,3,4-tetrahydronaphthalen-l-yl)-2-oxo-6-(trifluoromethyl)-1,2-dihydropyridine-3-carboxamide]
0.14% | 231 µL/min/mg | 6 min | 130 nM | 33.80% | 37.9 µL/min/mg | 36.5 min | – | – | CC1CCc2cc(Cl)ccc2C1NC(=O)c1ccc(C(F)(F)F)[nH]c1=O (stereo not shown) [Compound 293, N-(6-chloro-2-methyl-1,2,3,4-tetrahydronaphthalen-1-yl)-2-oxo-6-(trifluoromethyl)-1,2-dihydropyridine-3-carboxamide]
0.10% | 643 µL/min/mg | 2.15 min | 90 nM | 33.80% | 33.4 µL/min/mg | 41.5 min | – | – | Cc1ccc2c(c1)CCC(C)C2NC(=O)c1ccc(C(F)(F)F)[nH]c1=O (stereo not shown) [Compound 294, N-(2,6-dimethyl-1,2,3,4-tetrahydronaphthalen-1-yl)-2-oxo-6-(trifluoromethyl)-1,2-dihydropyridine-3-carboxamide]
1.24% | 149 µL/min/mg | 9.3 min | 110 nM | 36.10% | 35.4 µL/min/mg | 39.1 min | – | – | CCC1CCc2cc(Cl)ccc2C1NC(=O)c1ccc(C(F)(F)F)[nH]c1=O (stereo not shown) [Compound 297, N-(6-chloro-2-ethyl-1,2,3,4-tetrahydronaphthalen-1-yl)-2-oxo-6-(trifluoromethyl)-1,2-dihydropyridine-3-carboxamide]
